One series concerns the target T1, human MDR1 (Homo sapiens, UniProt P08183).
T1 construct: expressed in transfected cells
Kind of series: Efflux blockade of MDR1 fluorescent substrates (flow cytometry). Format: cell-based. Here is the method:
HEK 293T cells expressing human MDR1 or MES-SA/DX5 cells expressing human MDR1 were washed several times and aliquoted into 96-well plates as 50 µl aliquots/well at a cell density of 1 x 10e6 cells per ml in phenol red-free DMEM. Cells were mixed with 300 nM to 1 nM antibodies and incubated for 1 h at 37° C. To determine efflux blockade cells were incubated in the presence of B1 fluorescent substrates as follows: 0.6 µM Rhodamine; 5 µM […] (DiOC2(3)) or 0.6 µM Calcein AM for 1.5 h at 37° C. The cells were then washed twice and finally resuspended in […] PBS. Rhodamine, DiOC2(3) or Calcein AM fluorescence were measured by flow cytometry.
Effect of anti-MDR1 antibodies on efflux of MDR1 substrates Calcein, DIOC2, and Rhodamine was assessed as described in efflux blockade experimental procedure.
A general note: In flow cytometry, cells or beads pass a laser one at a time.

The test system of a further series is N6/ADR cells. Put plainly: Vincristine cytotoxicity assay on N6/ADR cells (CellTiter-Glo). Format: cell-based, human. The conditions noted are these: for IC50: Homo sapiens. As for the experimental part: (§1) The effect of antibodies on vincristine cytotoxicity was evaluated on N6/ADR, a doxorubicin-selected, ABCB1-positive variant of the human acute lymphoblastic leukemia (ALL) cell line, NALM6. Cells were plated in 0.05 mL of Assay Media (RPMI-1640 +10% FBS) at 5000 cells/well in white flat bottom 96-well tissue culture plates. Vincristine was prepared at 2X final assay concentration by serial dilution from 200 uM in assay media containing test antibodies or control antibodies at 100 ug/mL (2X final concentration), or valspodar, a small molecule KPB1 inhibitor at 7 uM (2X final concentration). An equivalent volume (0.05 mL) of the vincristine/antibody mixture was added to the N6/ADR cells in 96-well plates. The plates were then incubated at 37° C., in 5% CO2. After 72 hr plates were equilibrated to room temperature and cell viability assessed using Promega® CellTiter-Glo® Luminescent Cell Viability Assay according to the manufacturer’s recommended protocol. Luminescence was measured on a Molecular Devices® FlexStation® 3 Multi-Mode Microplate Reader and data analyzed using GraphPad Prism 8.0 software.
as §1, with “Cytotoxicity Assays. The effect” for “The effect”, “a doxorubicin-selected, B1-positive variant of” for “a doxorubicin-selected, ABCB1-positive variant of”, “small molecule B1 inhibitor at” for “small molecule KPB1 inhibitor at”, “8.0 software. Half maximal inhibitory concentration (IC50) is the concentration of drug (vincristine or other chemotherapy cytotoxic agent) where the response (cell growth) is reduced by 50%.” for “8.0 software.”

The subject of series [1] is MES-SA DX5 uterine sarcoma. Put plainly: MES-SA DX5 drug-resistant uterine sarcoma model in nude mice. The conditions noted are these: MES-SA DX5 tumors in vivo. Format: in vivo. As for the experimental part: Anti-ABCB1 antibodies B1.129, B1.261, B1.223, B1.225, B1.188, B1.28, and B1.226 were tested for effect on growth of tumors in immunodeficient mice. The following cancer cell lines were used for generating tumor models.
MES-SA DX5: The multi drug-resistant cell line MES-SA/Dx5 (Sigma. 95051031) was derived from the human uterine sarcoma cell line MES-SA (Sigma Catalogue number. 95051030) which was originally obtained from a tumour from a person at the time of hysterectomy. […] Cross resistance to bleomycin, cisplatin, carmustine, 5-fluorouracil or methotrexate was not observed.
Nude mice were implanted with MES-SA DX5 cells to model uterine sarcoma. Anti-B1 monoclonal antibodies are efficacious in MES-SA DX5 uterine sarcoma model in nude mice.

Series [2] deals with human MDR1 extracellular loops 1 and 4 (ECD1, ECD4). Kind of series: Epitope mapping with mutant human MDR1 expressed on 293T cells (flow cytometry). Format: binding. To be noted: mutant versus WT human ABCB1; preliminary epitope mapping. The source says:
To determine binding of anti-MDR1 mAbs listed in Table 2 to the two major extracellular loops 1 and 4 of MDR1, various mutations were constructed to alter or substitute these two loops. To examine binding to cynomolgus extracellular loops, the extracellular loop 1 and/or loop 4 of cynomolgus MDR1 were grafted (with a C-terminal FLAG tag) to substitute for the human loops in the human MDR1 using standard techniques. To examine binding dependence on the normal human loops, MDR1 variants with deletion 79-102 and deletion 82-99 in loop 1 were also generated. Loop 1 is also referred to as ECD1. Loop 4 is also referred to as ECD4. These mutant MDR1 efflux pump variants were expressed on 293T cells using standard methods to generate cells that could be used to distinguish binding of various anti-MDR1 mAbs. The different cells were incubated with different anti-MDR1 mAbs for about 1 hour at 4° C. The cells were washed twice with FACS buffer (PBS containing 0.5% BSA). Alexa647 labeled goat anti-human antibody was added as a secondary antibody, and the samples were incubated on ice for another 1 hour. Samples were washed again and analyzed by flow cytometry.
FIG. 9 summarizes the findings from preliminary epitope mapping using mutant human MDR1. […] For example, anti-MDR1 mAb B1.129 requires ECD1 and ECD4 for binding to human MDR1. All of the anti-MDR1 antibodies contact ECD4. […] ECD1 refers to the first extracellular domain of human ABCB1, ECD4 refers to the fourth extracellular domain of human ABCB1 and “others” refers to the remainder of the extracellular domains 2-3 and 5-6 of human ABCB1. Only binding to ECD1 and ECD4 was tested.

Series [3] concerns DX5-B1 KO uterine sarcoma. Put plainly: Uterine sarcoma formed from MES-SA DX5 cells lacking ABCB1 expression (DX5-B1 KO). Format: in vivo.

Where two headings read alike, the source gives them in different places.

With “15D3: anti-ABCB1 antibody known as 15D3; VH SEQ ID NO:287, VL SEQ ID NO:284 [reference compound]”, in the series with human MDR1 (293T.hB1 cell line), the “inhibition of efflux of DIOC2” value was “no observable effect” and the “inhibition of efflux of Rhodamine” value is given as “low inhibition”. In the series with human MDR1 (MES-SA/Dx5 cells), the “inhibition of efflux of DIOC2” value is “no observable effect” and the “inhibition of efflux of Rhodamine” value is “no effect”. Besides, the “potentiation of vincristine mediated cytotoxicity” value with N6/ADR cells (N6/ADR cells) is reported as “did not potentiate”. The “sensitization of MES-SA DX5 uterine sarcoma to paclitaxel” value in series [1] is “did not sensitize”. In series [2], the “ECD1 required for antibody binding to human ABCB1” value was “do not require” and the “ECD4 required for antibody binding to human ABCB1” value is recorded as “bind to an epitope that includes ECD4 sequences”.

In the case of `CC[C@]1(O)C[C@H]2CN(CCc3c([nH]c4ccccc34)[C@@](C(=O)OC)(c3cc4c(cc3OC)N(C=O)[C@H]3[C@@](O)(C(=O)OC)[C@H](OC(C)=O)[C@]5(CC)C=CCN6CC[C@]43[C@@H]65)C2)C1` [Vincristine, vincristine], the IC50 in the series on N6/ADR cells (72 h, read-out: IC50 (pM), cytotoxicity to N6/ADR cells by vincristine) amounted to 4120 pM; with N6/ADR cells (IC50 of vincristine alone or with antibody, N6/ADR cells, 72 hr, read-out: IC50 (nM), vincristine cytotoxicity) it was 543 pM.

In the case of `CC(=O)O[C@H]1C(=O)[C@@]2(C)[C@H]([C@H](OC(=O)c3ccccc3)[C@]3(O)C[C@H](OC(=O)[C@H](O)[C@@H](NC(=O)c4ccccc4)c4ccccc4)C(C)=C1C3(C)C)[C@]1(OC(C)=O)CO[C@@H]1C[C@@H]2O` [paclitaxel], the “sensitivity of tumor to paclitaxel” value in series [3] is recorded as “sensitive”.

As to “KPA08: anti-ABCB1 antibody with two heavy chains from 15D3 and two light chains from MRK16 [reference compound]”, in series [2], the “ECD1 required for antibody binding to human ABCB1” value is on record as “do not require” and the “ECD4 required for antibody binding to human ABCB1” value is given as “bind to an epitope that includes ECD4 sequences”.

On to “MRK16: anti-ABCB1 antibody known as MRK16; VH SEQ ID NO:286, VL SEQ ID NO:283”, for which the “potentiation of vincristine mediated cytotoxicity” value with N6/ADR cells (N6/ADR cells) is “did not potentiate”.

The values above are taken from patent US20230203156A1, “ANTI-MDR1 ANTIBODIES AND USES THEREOF” (KENJOCKETY BIOTECHNOLOGY, INC., priority 2020, published 2023).
